The target in assay [1] is T1, EP2 (Homo sapiens, UniProt P43116). Description: EP2 flipr. The class given is cell-based. The text has this:
(§1) U.S. patent application Ser. No. 11/553,143, filed on Oct. 26, 2006, incorporated by reference herein in its entirety, describes the methods used to obtain the in vitro data in the table below.

The target of assay [2] is T1, EP2. The experiment in a line: EP2 cAMP. The class given is cell-based.
Text: as §1

The target of assay [3] is T1, EP2. The experiment in a line: EP2 binding Ki.
Text: as §1

For assay [4], the target named is T2, EP4 (Homo sapiens, UniProt P35408). The experiment in a line: EP4 flipr. The class given is cell-based.
Text: as §1

The target in assay [5] is T2, EP4. Description: EP4 binding Ki.
Text: as §1

Assay [6] has as its target T3, hEP3A (Homo sapiens, UniProt P43115).
T3 sequence (P43115 1-390): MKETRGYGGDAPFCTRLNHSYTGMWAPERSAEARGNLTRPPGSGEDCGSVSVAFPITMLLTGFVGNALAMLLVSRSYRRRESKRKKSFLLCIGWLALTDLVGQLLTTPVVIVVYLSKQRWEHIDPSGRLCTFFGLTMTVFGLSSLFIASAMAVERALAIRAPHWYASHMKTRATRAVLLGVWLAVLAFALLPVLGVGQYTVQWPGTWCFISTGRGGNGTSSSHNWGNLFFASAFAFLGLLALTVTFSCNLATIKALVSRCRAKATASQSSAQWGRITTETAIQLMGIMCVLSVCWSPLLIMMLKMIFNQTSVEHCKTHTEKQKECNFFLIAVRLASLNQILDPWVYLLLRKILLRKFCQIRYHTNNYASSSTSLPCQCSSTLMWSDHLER
Description: Other receptors hEP3A. The assay is classed as cell-based.
Text: as §1

The target in assay [7] is T4, hTP (Homo sapiens, UniProt P21731).
T4 sequence (P21731 1-343): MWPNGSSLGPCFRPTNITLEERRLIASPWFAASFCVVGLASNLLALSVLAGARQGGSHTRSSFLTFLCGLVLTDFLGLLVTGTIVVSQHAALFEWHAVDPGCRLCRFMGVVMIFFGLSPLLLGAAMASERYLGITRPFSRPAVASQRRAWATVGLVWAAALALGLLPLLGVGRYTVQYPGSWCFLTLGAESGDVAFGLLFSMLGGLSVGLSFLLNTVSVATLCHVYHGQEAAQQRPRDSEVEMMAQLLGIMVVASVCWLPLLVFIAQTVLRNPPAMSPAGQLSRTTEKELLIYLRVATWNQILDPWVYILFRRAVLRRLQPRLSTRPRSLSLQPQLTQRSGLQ
The experiment in a line: Other receptors hTP. The class given is cell-based.
Text: as §1

Assay [8] has as its target T5, hDP (Homo sapiens, UniProt Q13258).
T5 sequence (Q13258 1-359): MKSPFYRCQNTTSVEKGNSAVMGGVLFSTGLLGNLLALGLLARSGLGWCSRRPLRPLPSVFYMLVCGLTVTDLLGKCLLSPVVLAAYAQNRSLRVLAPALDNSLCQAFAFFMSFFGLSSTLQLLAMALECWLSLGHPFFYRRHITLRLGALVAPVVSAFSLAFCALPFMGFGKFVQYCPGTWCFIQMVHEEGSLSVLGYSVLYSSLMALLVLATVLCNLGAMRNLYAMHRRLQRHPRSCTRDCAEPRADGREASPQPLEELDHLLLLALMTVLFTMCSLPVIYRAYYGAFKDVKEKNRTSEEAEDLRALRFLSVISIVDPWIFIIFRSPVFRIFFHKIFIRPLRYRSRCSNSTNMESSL
Description: Other receptors hDP. The class given is cell-based.
Text: as §1

In general, EC50 refers to the concentration needed to bring the measured effect to its halfway point. Low values mean an effect from little substance, high ones a need for much substance. The term Ki denotes the equilibrium dissociation constant of an inhibitor or competing ligand from its target.

T1 sequence (P43116 whole entry): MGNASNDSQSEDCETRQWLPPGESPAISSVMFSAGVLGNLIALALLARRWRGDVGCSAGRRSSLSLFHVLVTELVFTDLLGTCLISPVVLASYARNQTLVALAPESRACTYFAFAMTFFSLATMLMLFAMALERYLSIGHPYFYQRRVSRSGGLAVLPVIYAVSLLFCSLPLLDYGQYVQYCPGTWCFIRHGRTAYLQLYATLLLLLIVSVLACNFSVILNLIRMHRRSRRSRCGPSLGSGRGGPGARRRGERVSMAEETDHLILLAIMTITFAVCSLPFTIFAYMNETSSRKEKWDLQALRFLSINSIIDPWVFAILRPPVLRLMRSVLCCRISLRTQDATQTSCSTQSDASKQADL
T2 sequence (P35408 whole entry): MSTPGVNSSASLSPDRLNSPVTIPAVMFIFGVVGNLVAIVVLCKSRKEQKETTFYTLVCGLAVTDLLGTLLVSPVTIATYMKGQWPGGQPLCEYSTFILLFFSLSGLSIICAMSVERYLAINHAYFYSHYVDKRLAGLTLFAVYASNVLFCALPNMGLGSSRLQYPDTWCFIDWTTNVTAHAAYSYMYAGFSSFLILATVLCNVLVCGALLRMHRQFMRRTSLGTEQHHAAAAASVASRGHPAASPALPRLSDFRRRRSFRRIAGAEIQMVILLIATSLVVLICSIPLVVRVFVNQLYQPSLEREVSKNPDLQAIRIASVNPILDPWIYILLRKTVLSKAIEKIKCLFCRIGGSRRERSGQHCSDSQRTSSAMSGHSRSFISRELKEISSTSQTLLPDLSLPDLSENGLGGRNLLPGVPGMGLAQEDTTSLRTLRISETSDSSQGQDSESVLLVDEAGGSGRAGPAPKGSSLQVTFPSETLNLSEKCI

On to `Cc1cccc(/C=C/[C@@H]2[C@@H](CCCc3ccc(C(=O)O)s3)[C@H](Cl)C[C@H]2O)c1` [Example 12, 5-(3-((1R,2R,3R,5R)-5-chloro-3-hydroxy-2-(3-methylstyryl)cyclopentyl)propyl)thiophene-2-carboxylic acid], for which the EC50 in assay [1] stood at 17 nM; in assay [2] it was 0.1 nM; in assay [4], 16900 nM; in assay [6], 9880 nM; in assay [7], 3760 nM; in assay [8], 12300 nM. Further, the Ki in assay [3] stood at 2 nM; in assay [5], 144 nM.
Turning to `O=C(O)c1csc(SCC[C@@H]2[C@@H](C#Cc3cc(Cl)cc(Cl)c3)[C@H](O)C[C@H]2Cl)n1` [Example 34, 2-(2-((1R,2S,3R,5R)-5-chloro-2-((3,5-dichlorophenyl)ethynyl)-3-hydroxycyclopentyl)ethylthio)thiazole-4-carboxylic acid], the EC50 is 0.16 nM in assay [2], 3.3 nM in assay [4], 2880 nM in assay [6] and 14800 nM in assay [8]. For the same molecule, the Ki is 1.5 nM in assay [3] and 60 nM in assay [5].
Take `O=C(O)c1csc(SCC[C@@H]2[C@@H](C#Cc3ccccc3)[C@H](O)C[C@H]2Cl)n1` [Example 35, 2-(2-((1R,2S,3R,5R)-5-chloro-3-hydroxy-2-(phenylethynyl)cyclopentyl)ethylthio)thiazole-4-carboxylic acid]: the EC50 in assay [2] was 0.08 nM; in assay [4], 10 nM; in assay [6], 1500 nM; in assay [8] it was 1030 nM. For the same molecule, the Ki in assay [3] was determined as 5 nM; in assay [5], 463 nM.
As for `O=C(O)c1ccc(C=CC[C@@H]2[C@@H](C=Cc3cc(Cl)cc(Cl)c3)[C@H](O)C[C@H]2Cl)s1` [Example 1, 5-(3-((1R,2R,3R,5R)-5-chloro-2-(3,5-dichlorostyryl)-3-hydroxycyclopentyl)prop-1-enyl)thiophene-2-carboxylic acid], the EC50 in assay [1] is 37 nM; in assay [2], 0.2 nM; in assay [4], > 10000 nM; in assay [6], > 10000 nM; in assay [7], > 10000 nM. Further, the Ki in assay [3] came out at 2.2 nM; in assay [5], 440 nM.
For `O=C(O)c1ccc(CCC[C@@H]2[C@@H](C#Cc3cccs3)[C@H](O)C[C@H]2Cl)s1` [Example 28, 5-(3-((1R,2S,3R,5R)-5-chloro-3-hydroxy-2-(thiophen-2-ylethynyl)cyclopentyl)propyl)thiophene-2-carboxylic acid], the EC50 in assay [2] was found to be 0.8 nM; in assay [4], 5880 nM; in assay [6], 6520 nM; in assay [8], 18300 nM. In addition, the inhibition constant Ki in assay [3] came out at 10 nM; in assay [5], 825 nM.
For `O=C(O)c1ccc(CCC[C@@H]2[C@@H](/C=C\c3cc(F)cc(F)c3)[C@H](O)C[C@H]2Cl)s1` [Example 7, 5-(3-((1R,2R,3R,5R)-5-chloro-2-((Z)-3,5-difluorostyryl)-3-hydroxycyclopentyl)propyl)thiophene-2-carboxylic acid], the concentration giving a half-maximal response (EC50) stood at 7140 nM in assay [1], 207 nM in assay [2], 95 nM in assay [7] and 6370 nM in assay [8]. The Ki in assay [3] is 425 nM; in assay [5], 3220 nM.
Consider `O=C(O)c1ccc(CCC[C@@H]2[C@@H](/C=C\c3cc(Cl)nc(Cl)c3)[C@H](O)C[C@H]2Cl)s1` [Example 5, 5-(3-((1R,2R,3R,5R)-5-chloro-2-((Z)-2-(2,6-dichloropyridin-4-yl)vinyl)-3-hydroxycyclopentyl)propyl)-thiophene-2-carboxylic acid], for which the EC50 in assay [1] worked out at 458 nM; in assay [2], 3 nM; in assay [4] it was 1920 nM; in assay [8] it was 2100 nM. Further, the Ki in assay [3] is 38 nM; in assay [5], 1990 nM.
With `O=C(O)c1ccc(CCC[C@@H]2[C@@H](/C=C/c3cc(F)cc(F)c3)[C@H](O)C[C@H]2Cl)s1` [Example 6, 5-(3-((1R,2R,3R,5R)-5-chloro-2-((E)-3,5-difluorostyryl)-3-hydroxycyclopentyl)propyl)thiophene-2-carboxylic acid], the EC50 in assay [1] was 22 nM; in assay [2] it was 0.3 nM; in assay [4] it was > 10000 nM; in assay [7], 65300 nM. Moreover, the Ki in assay [3] worked out at 7 nM; in assay [5], 878 nM.
Turning to `O=C(O)c1ccc(CCC[C@@H]2[C@@H](/C=C/c3cc(Cl)cc(CO)c3)[C@H](O)C[C@H]2Cl)s1` [Example 2, 5-(3-((1R,2R,3R,5R)-5-chloro-2-(3-chloro-5-(hydroxymethyl)styryl)-3-hydroxycyclopentyl)propyl)-thiophene-2-carboxylic acid], the EC50 in assay [1] was 85 nM; in assay [2], 0.13 nM; in assay [4], > 10000 nM; in assay [8], > 10000 nM. In addition, the Ki came to 2 nM in assay [3] and 135 nM in assay [5].
For `O=C(O)c1ccc(CCC[C@H]2C(=O)C[C@@H](O)[C@@H]2C#Cc2ccccc2)s1` [Example 17, 5-(3-((1R,2S,3R)-3-hydroxy-5-oxo-2-(phenylethynyl)cyclopentyl)propyl)thiophene-2-carboxylic acid], the EC50 in assay [1] came out at 9 nM; in assay [2], 0.05 nM; in assay [4], 33800 nM; in assay [6], 11000 nM. Further, the Ki in assay [3] was determined as 5 nM; in assay [5] it was 700 nM.
In the case of `C=CCCc1cccc(/C=C/[C@@H]2[C@@H](CCCc3ccc(C(=O)O)s3)[C@H](Cl)C[C@H]2O)c1` [Example 9, 5-(3-((1R,2R,3R,5R)-2-(3-(but-3-enyl)styryl)-5-chloro-3-hydroxycyclopentyl)propyl)thiophene-2-carboxylic acid], the EC50 in assay [1] is 72 nM; in assay [2], 0.03 nM; in assay [4], 17300 nM; in assay [6], 5780 nM. For the same molecule, the Ki came out at 0.7 nM in assay [3] and 288 nM in assay [5].
With `O=C(O)c1ccc(CCC[C@@H]2[C@@H](C#Cc3ccccc3)[C@H](O)C[C@H]2F)s1` [Example 19, 5-(3-((1R,2S,3R,5R)-5-fluoro-3-hydroxy-2-(phenylethynyl)cyclopentyl)propyl)thiophene-2-carboxylic acid], the EC50 in assay [1] is 349 nM; in assay [2], 0.23 nM; in assay [4] it was 26600 nM; in assay [6], > 10000 nM. Also, the Ki came out at 4 nM in assay [3] and 1020 nM in assay [5].

The values are drawn from patent US9765065B2, “Therapeutic substituted cyclopentanes” (ALLERGAN, INC., priority 2007, dated 2017).
